Counter-ions that a name gives are not always drawn. No end group written: not given here.
Columns and labels:
Type in all cases: cell-based
[1] = system: 168 GPCRs; assay: gpcrMAX panel 30 μM single-point β-arrestin screen (agonist and antagonist mode); details: antagonist mode
Protocol: Activity, or a “hit,” was defined as >30% in agonist mode, >35% in antagonist mode, or >50% in the orphan screen (agonist mode). Where these criteria were met, signal-to-noise (S/N) and coefficient of variation (CoV) were also calculated, defined as: […]
Agonist mode Antagonist modeS/N Compound mean/Baseline mean+(Baseline SD×3) EC80 mean/Compound-(Compound SD× 3)CoV Baseline mean/Compound mean-(Compound SD× 3) Compound mean/EC80 mean-(EC80 SD × 3)
Hits were verified to have S/N>1 and a CoV <1. Thresholds and subsequent validation were guided by Eurofins. Descriptive data (means ± S.E.M) was generated in Graphpad Prism (version 9.2.0, San Diego, CA).

[2] = molecular target: T1, GPR119 (Homo sapiens, UniProt Q8TDV5); assay: PathHunter β-arrestin assay; details: for inhibition in single-point screen: antagonist mode, 30 μM
T1 construct: purchased Eurofins DiscoverX (PathHunter gpcrMAX)
T1 sequence (Q8TDV5 1-335): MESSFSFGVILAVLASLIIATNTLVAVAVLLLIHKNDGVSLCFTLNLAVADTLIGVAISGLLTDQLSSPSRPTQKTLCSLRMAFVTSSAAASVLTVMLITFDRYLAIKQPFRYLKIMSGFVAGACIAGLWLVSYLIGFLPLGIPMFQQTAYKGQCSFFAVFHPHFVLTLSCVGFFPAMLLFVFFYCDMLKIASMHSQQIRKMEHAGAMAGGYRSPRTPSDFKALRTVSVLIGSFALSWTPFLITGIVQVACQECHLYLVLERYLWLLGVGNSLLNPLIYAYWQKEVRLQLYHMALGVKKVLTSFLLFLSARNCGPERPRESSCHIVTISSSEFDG

[3] = molecular target: T2, CCR4 (Homo sapiens, UniProt P51679); assay: PathHunter β-arrestin assay; details: for EC80: control agonist
T2 sequence (P51679 1-360): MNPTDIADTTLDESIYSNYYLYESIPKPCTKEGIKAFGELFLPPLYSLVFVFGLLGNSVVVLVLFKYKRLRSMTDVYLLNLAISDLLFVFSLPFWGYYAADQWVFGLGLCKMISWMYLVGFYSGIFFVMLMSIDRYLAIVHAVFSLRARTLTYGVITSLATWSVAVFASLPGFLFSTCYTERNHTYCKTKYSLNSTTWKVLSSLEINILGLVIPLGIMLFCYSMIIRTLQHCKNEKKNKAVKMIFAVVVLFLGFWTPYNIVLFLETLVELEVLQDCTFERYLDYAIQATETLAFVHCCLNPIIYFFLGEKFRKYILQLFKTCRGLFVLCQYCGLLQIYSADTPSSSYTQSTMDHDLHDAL
Protocol: (§1) Follow up experiments were prioritized based on the difference between S/N and CoV. Targets with a >5-fold difference between S/N and CoV were investigated for their potential contribution to the AMB-FUBINACA toxidrome with 10-point concentration-response curves generated in technical replicate (range 1.5–30 μM) using the EC80 of the relevant agonist, where applicable in antagonist mode. Simultaneous agonist and antagonist curves were run in parallel to ensure reliability of the assay (see Supplementary Table 2), with both RC50 and signal to background aligning with historical averages, and Z' >0.5. RC50 was estimated using a four-parameter fit (CBIS Data Analysis Suite, ChemInnovation, San Diego, CA) on normalized data.

[4] = molecular target: PTGER4 (Homo sapiens, UniProt P35408); assay: PathHunter β-arrestin assay; details: follow-up assays, control antagonist
Protocol: as §1

[5] = molecular target: P2RY6 (Homo sapiens, UniProt Q15077); assay: PathHunter β-arrestin assay
Protocol: as §1

[6] = system: AtT20 cells wildtype (WT); assay: LDH release cytotoxicity assay; details: 30 μM
Protocol: AtT20 cells expressing either human CB1 (hCB1) or CB2 (hCB2) receptors or wildtype (WT) were grown to confluence in T75 cm^2 flasks in Dulbecco's modified eagle medium containing 10% fetal bovine serum, 100 U penicillin/streptomycin, and 80 μg/mL hygromicyin (Sigma-Aldrich/Merck; Castle Hill, NSW, Australia). Cells were plated in 96-well-microplates at 30,000 cells per well and allowed to adhere overnight in 5% CO2. The following morning, cells were treated with either vehicle (0.1% DMSO; negative control), 30 μM Δ^9-THC, or 30 μM AMB-FUBINACA. At 1 or 6 h, the amount of lactate dehydrogenase in the cell media was tested, and compared with positive control (lysed cells) as per manufacturer's instructions (Dojindo Molecular Technologies, Inc.; Rockville, MD, USA), with readings performed on a Clariostar Plus plate reader (BMG Labtech, Mornington, VIC, Australia). Experiments were performed in triplicate. In order to measure any accumulating LDH, media was not changed after initial incubation. Data is represented as means ± S.E.M. A two-way ANOVA with was performed on the data at each time point, with Tukey's multiple comparison test (α = 0.05). A p < 0.05 was considered statistically significant.

[7] = molecular target: T3, ADRA2C (Homo sapiens, UniProt P18825); assay: PathHunter β-arrestin assay; details: control agonist
T3 sequence (P18825 1-462): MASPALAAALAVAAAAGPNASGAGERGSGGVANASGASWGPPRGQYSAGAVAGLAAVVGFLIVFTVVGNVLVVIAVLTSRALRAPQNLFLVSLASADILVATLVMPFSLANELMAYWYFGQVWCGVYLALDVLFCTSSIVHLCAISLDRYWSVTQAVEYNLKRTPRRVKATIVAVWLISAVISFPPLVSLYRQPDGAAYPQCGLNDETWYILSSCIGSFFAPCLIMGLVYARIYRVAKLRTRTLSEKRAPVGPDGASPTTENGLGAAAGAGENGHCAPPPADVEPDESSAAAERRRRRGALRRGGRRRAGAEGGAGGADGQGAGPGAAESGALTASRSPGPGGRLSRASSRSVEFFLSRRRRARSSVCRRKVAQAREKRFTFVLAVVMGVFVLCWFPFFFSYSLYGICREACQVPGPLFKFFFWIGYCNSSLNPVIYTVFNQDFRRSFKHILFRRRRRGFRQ

[8] = molecular target: GPR35 (Homo sapiens, UniProt Q9HC97); assay: PathHunter β-arrestin assay; details: control agonist
[9] = molecular target: T4, CCR6 (Homo sapiens, UniProt P51684); assay: PathHunter β-arrestin assay; details: control agonist
T4 construct: purchased Eurofins DiscoverX (PathHunter gpcrMAX)
T4 sequence (P51684 1-374): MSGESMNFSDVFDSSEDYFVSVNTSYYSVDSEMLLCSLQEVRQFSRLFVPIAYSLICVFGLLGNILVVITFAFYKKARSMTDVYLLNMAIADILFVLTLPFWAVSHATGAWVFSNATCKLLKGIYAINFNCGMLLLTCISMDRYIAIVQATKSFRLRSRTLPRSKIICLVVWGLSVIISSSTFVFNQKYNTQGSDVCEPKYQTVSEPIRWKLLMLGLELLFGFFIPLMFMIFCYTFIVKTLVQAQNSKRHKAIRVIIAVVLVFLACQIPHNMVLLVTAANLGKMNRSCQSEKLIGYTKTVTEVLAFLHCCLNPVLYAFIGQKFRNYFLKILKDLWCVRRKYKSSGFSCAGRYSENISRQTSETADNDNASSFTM
Protocol: as §1

[10] = molecular target: T5, HCRTR1 (Homo sapiens, UniProt O43613); assay: PathHunter β-arrestin assay; details: control agonist
T5 sequence (O43613 1-425): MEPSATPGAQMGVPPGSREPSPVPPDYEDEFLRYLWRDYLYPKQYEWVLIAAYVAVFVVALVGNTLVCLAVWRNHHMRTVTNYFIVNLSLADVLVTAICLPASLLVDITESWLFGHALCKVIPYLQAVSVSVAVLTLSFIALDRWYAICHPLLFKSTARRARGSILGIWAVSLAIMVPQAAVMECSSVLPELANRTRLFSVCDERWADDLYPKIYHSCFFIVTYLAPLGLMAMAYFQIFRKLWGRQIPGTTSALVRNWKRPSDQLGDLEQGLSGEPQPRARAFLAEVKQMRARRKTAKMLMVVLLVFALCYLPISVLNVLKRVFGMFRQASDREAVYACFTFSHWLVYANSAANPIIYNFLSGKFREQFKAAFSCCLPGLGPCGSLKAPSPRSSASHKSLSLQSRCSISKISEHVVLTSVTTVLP
Protocol: as §1

[11] = molecular target: CCR8 (Homo sapiens, UniProt P51685); assay: PathHunter β-arrestin assay; details: control agonist
Protocol: as §1

[12] = molecular target: T6, CCR9 (Homo sapiens, UniProt P51686); assay: PathHunter β-arrestin assay; details: control agonist
T6 construct: purchased Eurofins DiscoverX (PathHunter gpcrMAX)
T6 sequence (P51686 1-369): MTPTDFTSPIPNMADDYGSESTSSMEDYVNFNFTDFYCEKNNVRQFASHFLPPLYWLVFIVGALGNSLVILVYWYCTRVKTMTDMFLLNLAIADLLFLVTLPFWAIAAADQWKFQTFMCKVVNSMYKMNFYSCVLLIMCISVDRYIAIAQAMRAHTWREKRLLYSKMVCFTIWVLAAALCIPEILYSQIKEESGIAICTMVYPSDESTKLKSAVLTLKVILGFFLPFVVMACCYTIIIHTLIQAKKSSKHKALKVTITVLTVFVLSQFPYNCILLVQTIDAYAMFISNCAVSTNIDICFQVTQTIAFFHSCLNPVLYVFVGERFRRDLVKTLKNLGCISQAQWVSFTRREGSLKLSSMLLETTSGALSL
Protocol: as §1

[13] = follow-up assays, control antagonist
[14] = follow-up concentration-response assays

Chain of GPR35 (Q9HC97 whole entry): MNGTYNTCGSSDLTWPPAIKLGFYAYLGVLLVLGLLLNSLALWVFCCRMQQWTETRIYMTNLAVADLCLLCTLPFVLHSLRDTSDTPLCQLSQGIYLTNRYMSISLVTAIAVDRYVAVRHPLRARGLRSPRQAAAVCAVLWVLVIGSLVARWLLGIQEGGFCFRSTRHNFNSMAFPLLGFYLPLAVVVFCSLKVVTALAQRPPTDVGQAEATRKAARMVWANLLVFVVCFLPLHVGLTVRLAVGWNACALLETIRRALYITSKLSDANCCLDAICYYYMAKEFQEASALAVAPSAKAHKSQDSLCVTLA
Chain of P2RY6 (Q15077 whole entry): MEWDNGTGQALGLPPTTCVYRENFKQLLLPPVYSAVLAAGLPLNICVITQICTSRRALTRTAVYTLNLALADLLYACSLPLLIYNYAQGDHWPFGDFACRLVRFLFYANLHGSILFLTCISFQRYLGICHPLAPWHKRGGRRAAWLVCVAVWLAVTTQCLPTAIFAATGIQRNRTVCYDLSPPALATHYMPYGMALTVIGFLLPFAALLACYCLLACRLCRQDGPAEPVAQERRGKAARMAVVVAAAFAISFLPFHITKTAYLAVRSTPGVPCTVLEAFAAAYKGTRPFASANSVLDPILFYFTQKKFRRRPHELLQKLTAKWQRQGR
Chain of PTGER4 (P35408 whole entry): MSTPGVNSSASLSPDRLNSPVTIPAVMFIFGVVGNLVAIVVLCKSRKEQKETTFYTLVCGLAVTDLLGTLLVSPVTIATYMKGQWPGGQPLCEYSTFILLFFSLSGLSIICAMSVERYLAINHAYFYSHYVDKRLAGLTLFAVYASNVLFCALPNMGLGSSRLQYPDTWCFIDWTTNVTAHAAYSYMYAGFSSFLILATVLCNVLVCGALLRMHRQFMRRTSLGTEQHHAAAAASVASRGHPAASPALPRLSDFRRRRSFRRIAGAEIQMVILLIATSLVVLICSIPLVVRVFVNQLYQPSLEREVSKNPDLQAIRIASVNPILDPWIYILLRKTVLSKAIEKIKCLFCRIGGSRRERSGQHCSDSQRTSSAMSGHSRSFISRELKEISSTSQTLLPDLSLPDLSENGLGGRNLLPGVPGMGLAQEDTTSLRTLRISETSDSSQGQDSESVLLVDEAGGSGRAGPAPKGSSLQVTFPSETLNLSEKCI

COC(=O)C(NC(=O)c1nn(CCCCF)c2ccccc12)C(C)(C)C (centres unmarked) [4F-MDMB-BUTINACA]
number of off-targets inhibited (>35%) [1]: 16

CCCCCn1nc(C(=O)NC23CC4CC(CC(C4)C2)C3)c2ccccc21 [AKB-48]
inhibition in single-point screen [2]: inhibited to the greatest extent of any antagonist mode target

COc1cc2nc(N3CCC(N4CCCCC4)CC3)nc(NC3CCCCCC3)c2cc1OC [C 021 dihydrochloride]
IC50 [3, 13]: 2.58 nM

CCCCCn1nc(C(=O)NC(C)(C)c2ccccc2)c2ccccc21 [CUMYL-PINACA]
number of off-targets inhibited (>35%) [1]: inhibited the greatest number of targets
inhibition in single-point screen [2]: inhibited to the greatest extent of any antagonist mode target

CCCCc1nn(-c2ccccc2C(F)(F)F)c(=O)n1Cc1ccc(-c2ccccc2S(=O)(=O)NC(=O)c2sccc2C)cc1 [L 161,982]
IC50 [4]: 15.9 nM

S=C=Nc1cccc(NC(=S)NCCCCNC(=S)Nc2cccc(N=C=S)c2)c1 [MRS 2578]
IC50 [5, 13]: 2520 nM

CCCCCCCC/C=C\CCCCCCCC(=O)NCCO [Oleoyl Ethanolamide]
EC80 ([2]; screen, control agonist, HEK, 37C, 2HR): 4310 nM

CCCCCn1cc(C(=O)Oc2cccc3cccnc23)c2ccccc21 [PB-22]
number of off-targets inhibited (>35%) [1]: 20

CCCCCc1cc(O)c2c(c1)OC(C)(C)[C@@H]1CCC(C)=C[C@@H]21 [THC, Δ^9-tetrahydrocannabinol]
LDH in cell media, normalized to total LDH ([6]; 1 h): 22.40 ± 3.44%
LDH increase compared with vehicle ([6]; 6 h): no effect was observed

O=c1ccn([C@@H]2O[C@H](COP(=O)(O)OP(=O)(O)O)[C@@H](O)[C@H]2O)c(=O)[nH]1 [UDP]
EC80 ([5]; follow-up concentration-response assays, control agonist): 74.88 nM

Brc1c(NC2=NCCN2)ccc2nccnc12 [UK 14,304]
EC80 [7, 14]: 123.1 nM
EC80 ([7]; screen, CHO, RT, 2HR): 111 nM

CCCOc1ccccc1-c1nc2nn[nH]c2c(=O)[nH]1 [Zaprinast]
EC80 [8, 14]: 4048 nM
EC80 ([8]; screen, CHO, 37C, 2HR): 12100 nM

CCL20: control agonist
EC80 [9, 14]: 44.68 nM
EC80 ([9]; screen, CHO, 37C, 2HR): 44.7 nM

Orexin A (QPLPDCCRQKTCSCRLYELLHGAGNHAAGILTL; not fully specified (residue 1, C-terminus, bridges); cysteine pairing not given here; UniProt O43612 34-66, looked up) [control agonist]
EC80 [10, 14]: 10.62 nM
EC80 ([10]; screen, CHO, 37C, 2HR): 10.6 nM

B1: CCL1: control agonist (protein, UniProt P22362 24-96, looked up)
C-C motif chemokine 1: KSMQVPFSRCCFSFAEQEIPLRAILCYRNTSSICSNEGLIFKLKRGKEACALDTVGWVQRHRKMLRHCPSKRK
EC80 [11, 14]: 157.4 nM
EC80 ([11]; screen, CHO, 37C, 2HR): 157 nM

B2: CCL22: control agonist (protein, UniProt O00626 25-93, looked up)
C-C motif chemokine 22: GPYGANMEDSVCCRDYVRYRLPLRVVKHFYWTSDSCPRPGVVLLTFRDKEICADPRVPWVKMILNKLSQ
EC80 [3, 14]: 19.61 nM
EC80 ([3]; screen, CHO, 37C, 2HR): 6.54 nM

B3: CCL25: control agonist (protein, UniProt O15444 24-150, looked up)
C-C motif chemokine 25: QGVFEDCCLAYHYPIGWAVLRRAWTYRIQEVSGSCNLPAAIFYLPKRHRKVCGNPKSREVQRAMKLLDARNKVFAKLHHNTQTFQAGPHAVKKLSSGNSKLSSSKFSNPISSSKRNVSLLISANSGL
EC80 [12, 14]: 350 nM
EC80 ([12]; screen, CHO, 37C, 2HR): 370 nM

— PMC9798004 (Frontiers in Psychiatry, 2022)
